{"source": "patent US8574914B2", "about": "“Methods for mobile zinc measurement” (The General Hospital Corporation, priority 2009, dated 2013)", "assay": "fluorescent zinc titration of ZPP1, fit to two-step binding model", "excerpt": "Since ZPP1 contains two zinc-binding units, the following stepwise equilibria describe the binding events.\nTwo apparent binding constants, (K1app=1.52×10^11 M^−1, K2app=1.02×10^8 M^−1) were obtained by fitting the experimental data to the two-step model with high fidelity.", "key": {"[1]": {"settings": "fluorescence titration, two-step model fit"}}, "data": [{"smiles": "O=C(O)c1ccccc1-c1c2cc(Cl)c(=O)c(CN(Cc3ccccn3)Cc3cnccn3)c-2oc2c(CN(Cc3ccccn3)Cc3cnccn3)c(O)c(Cl)cc12", "note": "[ZPP1]", "values": [{"measurement": "apparent binding constant K1app (first step zinc binding)", "setting": "[1]", "value": "1.52e+11", "unit": "M⁻¹"}, {"measurement": "apparent binding constant K2app (second step zinc binding)", "setting": "[1]", "value": "1.02e+08", "unit": "M⁻¹"}, {"measurement": "zinc equivalents at which fluorescence intensity reaches its maximum", "setting": "state B", "value": "~2", "unit": "equiv"}, {"measurement": "fluorescence response on addition of up to 1 equiv of zinc", "setting": "up to 1 equiv zinc (state A)", "value": "only a slight fluorescence increase"}]}]}
